Activity calls are given as the source filed them. No cut-off for these calls is given here.
Assays:
[1] = system: Mus musculus; assay: In vivo inhibition of PI3K signalling in human Pfeiffer cells xenografted in nude mouse assessed as reduction in Akt phosphorylation at Ser473 at 5 mg/kg, ip by Western blotting analysis; assay type: functional, organism-based
[2] = system: Pfeiffer; assay: Induction of apoptosis in human Pfeiffer cells assessed as late apoptotic cells at 2 uM incubated for 48 hrs by annexin V-FITC staining based flow cytometry (reference value: 7.87 %); assay type: functional
[3] = system: B-cell; assay: Inhibition of PI3Kdelta dependent mouse B-cell activation assessed as reduction in ratio of CD86 and B220 level at 0.001 to 0.1 uM stimulated with IgM for 1 hr prior to compound addition and measured after 24 hrs by flow cytometry analysis; assay type: functional, cell-based; conditions: dose 0.001-0.1 µM, time 25.0 hrs
[4] = system: Z-138; assay: Antiproliferative activity against human Z138 cells assessed as cell growth inhibition incubated for 96 hrs by cell titer glo assay; assay type: functional, cell-based; conditions: Z-138, 96 h
[5] = AUC (0 to t) in ICR mouse at 3 mg/kg, iv measured upto 24 hrs by LC-MS/MS analysis; assay type: ADME, organism-based; design: time < 24 hrs, dose 3 mg/kg, route iv; conditions: in vivo
[6] = system: Pfeiffer; assay: Induction of apoptosis in human Pfeiffer cells assessed as early apoptotic cells at 10 uM incubated for 48 hrs by annexin V-FITC staining based flow cytometry (reference value: 4.16 %); assay type: functional
[7] = Tmax in ICR mouse at 3 mg/kg, iv measured upto 24 hrs by LC-MS/MS analysis; assay type: ADME, organism-based; conditions: in vivo
[8] = biological target: Phosphatidylinositol 4,5-bisphosphate 3-kinase catalytic subunit alpha isoform (Homo sapiens, UniProt P42336); assay: Inhibition of PI3Kalpha (unknown origin) using PIP2 as substrate measured after 1 hr in presence of ATP by ADP-glo luminescence assay
Phosphatidylinositol 4,5-bisphosphate 3-kinase catalytic subunit alpha isoform (Homo sapiens, UniProt P42336), sequence (P42336 whole entry, canonical isoform): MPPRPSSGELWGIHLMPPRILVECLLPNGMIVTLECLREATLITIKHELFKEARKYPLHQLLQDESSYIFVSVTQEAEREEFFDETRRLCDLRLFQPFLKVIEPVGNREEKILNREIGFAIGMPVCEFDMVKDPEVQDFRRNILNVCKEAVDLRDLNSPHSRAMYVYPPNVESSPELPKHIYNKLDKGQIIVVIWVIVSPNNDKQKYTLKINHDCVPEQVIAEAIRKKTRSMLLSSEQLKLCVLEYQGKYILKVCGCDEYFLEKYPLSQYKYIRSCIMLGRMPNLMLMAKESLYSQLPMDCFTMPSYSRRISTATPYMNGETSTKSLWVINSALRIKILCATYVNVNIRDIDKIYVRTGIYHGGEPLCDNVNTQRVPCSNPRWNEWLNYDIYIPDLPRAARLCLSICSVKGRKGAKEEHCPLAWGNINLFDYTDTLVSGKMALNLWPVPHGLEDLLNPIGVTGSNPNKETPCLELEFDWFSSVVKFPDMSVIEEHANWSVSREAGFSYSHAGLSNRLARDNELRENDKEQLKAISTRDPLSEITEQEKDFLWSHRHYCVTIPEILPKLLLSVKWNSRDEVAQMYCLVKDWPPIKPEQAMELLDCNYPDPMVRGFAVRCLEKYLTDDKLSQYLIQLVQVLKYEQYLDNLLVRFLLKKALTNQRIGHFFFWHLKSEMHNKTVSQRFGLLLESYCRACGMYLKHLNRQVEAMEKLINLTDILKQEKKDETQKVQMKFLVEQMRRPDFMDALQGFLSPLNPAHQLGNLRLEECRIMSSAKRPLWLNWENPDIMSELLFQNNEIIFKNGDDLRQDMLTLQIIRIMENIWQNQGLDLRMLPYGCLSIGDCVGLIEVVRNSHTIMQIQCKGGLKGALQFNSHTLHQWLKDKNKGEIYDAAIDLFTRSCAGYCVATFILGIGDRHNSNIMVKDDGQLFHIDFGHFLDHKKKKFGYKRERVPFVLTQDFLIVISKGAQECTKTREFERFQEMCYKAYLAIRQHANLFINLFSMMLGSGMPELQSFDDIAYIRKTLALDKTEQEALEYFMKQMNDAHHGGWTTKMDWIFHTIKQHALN

[9] = biological target: Phosphatidylinositol 4,5-bisphosphate 3-kinase catalytic subunit gamma isoform (Mus musculus, UniProt Q9JHG7); assay: Inhibition of PI3Kgamma in C5a stimulated mouse RAW264.7 cells incubated for 10 mins by AlphaLisa assay; assay type: cell-based
Phosphatidylinositol 4,5-bisphosphate 3-kinase catalytic subunit gamma isoform (Mus musculus, UniProt Q9JHG7), sequence (Q9JHG7 whole entry, canonical isoform): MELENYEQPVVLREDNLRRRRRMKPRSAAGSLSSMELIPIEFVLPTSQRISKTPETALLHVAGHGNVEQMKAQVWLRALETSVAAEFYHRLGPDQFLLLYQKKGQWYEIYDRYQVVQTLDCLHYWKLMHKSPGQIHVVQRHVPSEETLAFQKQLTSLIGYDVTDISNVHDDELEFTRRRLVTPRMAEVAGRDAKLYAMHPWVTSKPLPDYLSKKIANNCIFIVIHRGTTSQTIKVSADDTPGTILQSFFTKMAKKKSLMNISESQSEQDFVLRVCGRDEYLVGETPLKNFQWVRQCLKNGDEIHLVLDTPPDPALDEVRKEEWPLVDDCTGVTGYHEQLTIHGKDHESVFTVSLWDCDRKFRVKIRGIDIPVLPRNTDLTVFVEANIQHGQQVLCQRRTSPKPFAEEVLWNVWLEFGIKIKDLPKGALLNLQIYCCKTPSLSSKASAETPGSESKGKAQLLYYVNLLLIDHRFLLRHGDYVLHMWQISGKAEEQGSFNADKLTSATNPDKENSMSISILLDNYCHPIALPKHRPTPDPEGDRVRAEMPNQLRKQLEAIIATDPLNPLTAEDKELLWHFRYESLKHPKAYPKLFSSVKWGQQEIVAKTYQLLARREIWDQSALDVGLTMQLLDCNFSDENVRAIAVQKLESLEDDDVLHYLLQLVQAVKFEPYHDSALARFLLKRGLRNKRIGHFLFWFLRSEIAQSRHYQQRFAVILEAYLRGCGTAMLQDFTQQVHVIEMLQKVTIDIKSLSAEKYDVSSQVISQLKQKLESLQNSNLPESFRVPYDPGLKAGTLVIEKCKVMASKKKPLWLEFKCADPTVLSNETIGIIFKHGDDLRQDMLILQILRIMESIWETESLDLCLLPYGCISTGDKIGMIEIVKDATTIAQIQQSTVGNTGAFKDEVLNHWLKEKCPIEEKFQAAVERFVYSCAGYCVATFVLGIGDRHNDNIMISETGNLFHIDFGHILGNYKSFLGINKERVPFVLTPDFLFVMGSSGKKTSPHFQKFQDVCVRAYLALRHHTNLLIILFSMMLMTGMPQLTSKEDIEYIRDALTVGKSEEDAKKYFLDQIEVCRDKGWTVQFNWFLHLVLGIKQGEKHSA

[10] = system: Pfeiffer; assay: Induction of apoptosis in human Pfeiffer cells assessed as early apoptotic cells at 2 uM incubated for 48 hrs by annexin V-FITC staining based flow cytometry (reference value: 4.16 %); assay type: functional
[11] = system: Pfeiffer; assay: Induction of apoptosis in human Pfeiffer cells assessed as early apoptotic cells at 50 uM incubated for 48 hrs by annexin V-FITC staining based flow cytometry (reference value: 4.16 %); assay type: functional
[12] = Oral bioavailability in ICR mouse at 30 mg/kg measured upto 24 hrs by LC-MS/MS analysis; assay type: ADME, organism-based; conditions: in vivo
[13] = biological target: Phosphatidylinositol 4,5-bisphosphate 3-kinase catalytic subunit alpha isoform (Mus musculus, UniProt P42337); assay: Inhibition of PI3Kalpha in IGF-1 stimulated mouse C2C12 cells incubated for 10 mins by AlphaLISA assay; assay type: cell-based
Phosphatidylinositol 4,5-bisphosphate 3-kinase catalytic subunit alpha isoform (Mus musculus, UniProt P42337), sequence (P42337 whole entry, canonical isoform): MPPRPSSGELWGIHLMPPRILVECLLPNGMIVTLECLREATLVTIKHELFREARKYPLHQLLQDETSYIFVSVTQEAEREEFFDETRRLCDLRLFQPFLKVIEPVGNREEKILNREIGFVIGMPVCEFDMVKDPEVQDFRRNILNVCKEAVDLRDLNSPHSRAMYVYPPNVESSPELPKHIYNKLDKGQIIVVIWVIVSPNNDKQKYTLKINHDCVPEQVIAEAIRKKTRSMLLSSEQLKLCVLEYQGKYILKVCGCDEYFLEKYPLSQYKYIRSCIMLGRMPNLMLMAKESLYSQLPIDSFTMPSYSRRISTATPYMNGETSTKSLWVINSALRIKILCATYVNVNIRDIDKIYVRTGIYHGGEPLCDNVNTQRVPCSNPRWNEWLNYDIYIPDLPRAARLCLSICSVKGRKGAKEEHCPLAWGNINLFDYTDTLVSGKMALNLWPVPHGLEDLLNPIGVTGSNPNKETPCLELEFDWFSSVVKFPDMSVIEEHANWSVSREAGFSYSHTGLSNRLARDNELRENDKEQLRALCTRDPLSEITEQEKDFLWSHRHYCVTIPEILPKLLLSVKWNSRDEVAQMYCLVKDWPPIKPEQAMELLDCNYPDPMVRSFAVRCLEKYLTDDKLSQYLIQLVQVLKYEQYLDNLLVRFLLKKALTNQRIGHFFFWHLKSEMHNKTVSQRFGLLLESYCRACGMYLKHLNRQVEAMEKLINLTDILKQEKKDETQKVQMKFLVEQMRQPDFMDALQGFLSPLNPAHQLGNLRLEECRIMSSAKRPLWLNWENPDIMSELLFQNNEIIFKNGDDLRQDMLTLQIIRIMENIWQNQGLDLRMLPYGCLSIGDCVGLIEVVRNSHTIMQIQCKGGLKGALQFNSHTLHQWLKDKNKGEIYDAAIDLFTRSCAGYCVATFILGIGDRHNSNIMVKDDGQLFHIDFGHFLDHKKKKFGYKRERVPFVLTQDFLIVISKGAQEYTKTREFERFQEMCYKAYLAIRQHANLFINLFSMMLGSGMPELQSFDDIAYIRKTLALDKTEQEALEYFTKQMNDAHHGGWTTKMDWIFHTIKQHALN

[14] = system: Pfeiffer; assay: Antiproliferative activity against human Pfeiffer cells assessed as cell growth inhibition incubated for 96 hrs by cell titer glo assay; assay type: functional, cell-based
[15] = AUC (0 to infinity) in ICR mouse at 3 mg/kg, iv measured upto 24 hrs by LC-MS/MS analysis; assay type: ADME, organism-based; design: time < 24 hrs, dose 3 mg/kg, route iv; conditions: in vivo
[16] = Plasma protein binding in mouse; assay type: ADME, cell-free; conditions: read-out: PPB (converted)
[17] = system: Mus musculus; assay: In vivo inhibition of PI3K signalling in human Pfeiffer cells xenografted in nude mouse assessed as reduction in Akt phosphorylation at Ser473 at 75 mg/kg, po by Western blotting analysis; assay type: functional, organism-based
[18] = system: Rec1; assay: Antiproliferative activity against human REC1 cells assessed as cell growth inhibition incubated for 96 hrs by cell titer glo assay; assay type: functional, cell-based; conditions: Rec1, 96 h
[19] = Microsomal stability in mouse liver microsomes assessed as intrinsic clearance; assay type: ADME, Microsome; conditions: read-out: CLH
[20] = AUC (0 to t) in ICR mouse at 30 mg/kg, po measured upto 24 hrs by LC-MS/MS analysis; assay type: ADME, organism-based; design: time < 24 hrs, dose 30 mg/kg, route po; conditions: in vivo
[21] = Toxicity in nude mouse xenografted with human Pfeiffer cells assessed as effect on body weight at 75 mg/kg, po BID for 21 days and measured twice weekly; assay type: organism-based; conditions: in vivo, 504 h, time 21 day
[22] = AUC (0 to infinity) in ICR mouse at 30 mg/kg, po measured upto 24 hrs by LC-MS/MS analysis; assay type: ADME, organism-based; design: dose 30 mg/kg, time < 24 hrs, route po; conditions: in vivo
[23] = system: SUD4; assay: Antiproliferative activity against human SU-DHL-4 cells assessed as cell growth inhibition incubated for 96 hrs by cell titer glo assay; assay type: functional, cell-based; conditions: SU-DHL-4, 96 h
[24] = system: Pfeiffer; assay: Antitumor activity against human Pfeiffer cells xenografted in nude mouse assessed as tumor growth inhibition at 75 mg/kg, po BID for 21 days and measured twice weekly; assay type: functional; conditions: 504 h, time 21 day, read-out: TGI
[25] = system: Pfeiffer; assay: Induction of apoptosis in human Pfeiffer cells assessed as necrotic cells at 10 uM incubated for 48 hrs by annexin V-FITC staining based flow cytometry (reference value: 6.62 %); assay type: functional
[26] = system: DOHH-2; assay: Antiproliferative activity against human DOHH-2 cells assessed as cell growth inhibition incubated for 96 hrs by cell titer glo assay; assay type: functional, cell-based; conditions: DOHH-2, 96 h
[27] = biological target: Phosphatidylinositol 4,5-bisphosphate 3-kinase catalytic subunit gamma isoform (Homo sapiens, UniProt P48736); assay: Inhibition of wild type partial length human PIK3CG (S144 to A1102 residues) expressed in mammalian cells assessed as residual activity at 10 uM relative to control; assay type: cell-based
Phosphatidylinositol 4,5-bisphosphate 3-kinase catalytic subunit gamma isoform (Homo sapiens, UniProt P48736), sequence (P48736 whole entry, looked up, the tested form may be a part, canonical isoform): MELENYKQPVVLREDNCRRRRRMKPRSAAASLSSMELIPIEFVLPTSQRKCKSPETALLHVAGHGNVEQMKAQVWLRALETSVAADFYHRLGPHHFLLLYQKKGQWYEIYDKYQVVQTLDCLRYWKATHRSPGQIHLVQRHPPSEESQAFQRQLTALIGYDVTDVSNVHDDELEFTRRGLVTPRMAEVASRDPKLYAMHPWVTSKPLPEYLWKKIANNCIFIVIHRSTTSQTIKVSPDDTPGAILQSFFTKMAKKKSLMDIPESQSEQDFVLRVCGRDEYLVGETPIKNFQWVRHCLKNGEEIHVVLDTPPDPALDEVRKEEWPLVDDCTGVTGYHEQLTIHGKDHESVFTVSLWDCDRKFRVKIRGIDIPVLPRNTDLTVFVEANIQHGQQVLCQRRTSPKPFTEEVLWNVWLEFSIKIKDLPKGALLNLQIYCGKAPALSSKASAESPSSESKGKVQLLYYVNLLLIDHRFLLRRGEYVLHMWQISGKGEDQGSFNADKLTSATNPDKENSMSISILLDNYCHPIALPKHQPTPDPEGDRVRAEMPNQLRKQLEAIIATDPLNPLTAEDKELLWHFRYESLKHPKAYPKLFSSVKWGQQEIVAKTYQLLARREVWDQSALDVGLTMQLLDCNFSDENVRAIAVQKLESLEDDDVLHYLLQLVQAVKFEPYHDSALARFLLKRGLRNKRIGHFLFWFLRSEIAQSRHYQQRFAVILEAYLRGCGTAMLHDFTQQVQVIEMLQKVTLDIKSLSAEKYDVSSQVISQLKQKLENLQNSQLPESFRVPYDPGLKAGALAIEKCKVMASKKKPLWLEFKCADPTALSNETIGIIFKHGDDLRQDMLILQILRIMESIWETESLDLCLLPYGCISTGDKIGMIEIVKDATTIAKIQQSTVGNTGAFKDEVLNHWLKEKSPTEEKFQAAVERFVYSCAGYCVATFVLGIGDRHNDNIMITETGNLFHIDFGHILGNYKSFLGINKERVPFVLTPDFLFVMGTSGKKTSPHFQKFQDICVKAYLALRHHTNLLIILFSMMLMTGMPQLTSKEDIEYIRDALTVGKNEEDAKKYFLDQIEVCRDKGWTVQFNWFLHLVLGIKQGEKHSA

[28] = Apparent volume of distribution in ICR mouse at 3 mg/kg, iv measured upto 24 hrs by LC-MS/MS analysis; assay type: ADME, organism-based; conditions: in vivo, read-out: Vz
[29] = system: Pfeiffer; assay: Induction of apoptosis in human Pfeiffer cells assessed as late apoptotic cells at 50 uM incubated for 48 hrs by annexin V-FITC staining based flow cytometry (reference value: 7.87 %); assay type: functional
[30] = biological target: Serine/threonine-protein kinase mTOR (Homo sapiens, UniProt P42345); assay: Inhibition of mTOR (unknown origin)
[31] = biological target: Phosphatidylinositol 4,5-bisphosphate 3-kinase catalytic subunit beta isoform (Homo sapiens, UniProt P42338); assay: Inhibition of PI3Kbeta in LPA stimulated human PC-3 cells incubated for 10 mins by AlphaLISA assay; assay type: cell-based
[32] = system: SU-DHL-6; assay: Induction of cell cycle arrest in human SU-DHL-6 cells assessed as accumulation at G0/G1 phase at 2 to 50 uM after 24 hrs by propidium iodide and RNAase staining based flow cytometric analysis; assay type: functional; conditions: dose 2-50 µM
[33] = system: SU-DHL-6; assay: Induction of apoptosis in human SU-DHL-6 cells assessed as apoptotic rate at 50 uM incubated for 48 hrs by annexin V-FITC staining based flow cytometry; assay type: functional
[34] = system: Pfeiffer; assay: Induction of apoptosis in human Pfeiffer cells assessed as necrotic cells at 2 uM incubated for 48 hrs by annexin V-FITC staining based flow cytometry (reference value: 6.62 %); assay type: functional
[35] = system: SU-DHL-6; assay: Antiproliferative activity against human SU-DHL-6 cells assessed as cell growth inhibition incubated for 96 hrs by cell titer glo assay; assay type: functional, cell-based; conditions: SU-DHL-6, 96 h
[36] = Tmax in ICR mouse at 30 mg/kg, po measured upto 24 hrs by LC-MS/MS analysis; assay type: ADME, organism-based; conditions: in vivo
[37] = system: SU-DHL-6; assay: Induction of apoptosis in human SU-DHL-6 cells assessed as apoptotic rate incubated for 48 hrs by annexin V-FITC staining based flow cytometry; assay type: functional, cell-based; conditions: dose 2-50 µM, DDE = dose-dependent effect

CCC(=O)N1CC[C@H](Nc2ncnc3sc(-c4cnc(OC)c(OC)c4)cc23)C1
inhibition [1]: Active
Activity [2]: 12.63%
inhibition [3]: Active
IC50 [4]: 7.05 µM
AUC(0-t) at 24 h [5]: 1370 ng·h/mL
Activity [6]: 6.98%
Tmax [7]: 4.8 min
IC50 [8]: 0.31 µM
IC50 [9]: 8.06 µM
Activity [10]: 6.03%
Activity [11]: 15.74%
bioavailability [12]: 7.49%
IC50 [13]: 50.2 µM
IC50 [14]: 0.58 µM
AUC(0-inf) [15]: 1370 ng·h/mL
fraction unbound [16]: 0.029
inhibition [17]: Active
IC50 [18]: 1.21 µM
CLint scaled [19]: 60.3 mL/min/kg
AUC(0-t) at 24 h [20]: 1030 ng·h/mL
Activity [21]: 10%
AUC(0-inf) [22]: 1030 ng·h/mL
IC50 [23]: 3.75 µM
inhibition in vivo at 75 mg/kg [24]: 65.5%
Activity [25]: 6.72%
IC50 [26]: 10.6 µM
Activity [27]: 9.9%
Vd [28]: 5.49 L/kg
Activity [29]: 43.33%
IC50 [30]: > 10 µM
IC50 [31]: 5.12 µM
Activity [32]: Active
Activity [33]: >50%
Activity [34]: 5.01%
IC50 [35]: 1.43 µM
Tmax [36]: 90 min
Activity [37]: Dde
